Measured values reported in patent publication US8809535B2, “Substituted pyridines having herbicidal action” (BASF SE, priority 2010, dated 2014).

Tests used:
Assay in all cases: greenhouse post-emergence herbicidal test
[1] = system: ECHCG; assay type: in vivo, Echinochloa crus-galli; settings: application rate 0.177 kg/ha, scale 0 to 100
Source text: (§1) The culture containers used were plastic flowerpots containing loamy sand with approximately 3.0% of humus as the substrate. The seeds of the test plants were sown separately for each species.
(§2) For the post-emergence treatment, the test plants were first grown to a height of 3 to 15 cm, depending on the plant habit, and only then treated with the active ingredients which had been suspended or emulsified in water. For this purpose, the test plants were either sown directly and grown in the same containers, or they were first grown separately as seedlings and transplanted into the test containers a few days prior to treatment.
(§3) Depending on the species, the plants were kept at 10-25° C. or 20-35° C. The test period extended over 2 to 4 weeks. During this time, the plants were tended, and their response to the individual treatments was evaluated.
(§4) Evaluation was carried out using a scale from 0 to 100. 100 means no emergence of the plants, or complete destruction of at least the aerial moieties, and 0 means no damage, or normal course of growth. A good herbicidal activity is given at values of at least 70 and a very good herbicidal activity is given at values of at least 85.
(§5) The plants used in the greenhouse experiments belonged to the following species: […]

[2] = system: SETVI; assay type: in vivo, Setaria viridis; settings: application rate 0.25 kg/ha, scale 0 to 100
Source text: as §1, §2, §3, §4, §5

[3] = system: GALAP; assay type: in vivo, Galium aparine; settings: application rate 0.25 kg/ha, scale 0 to 100
Source text: as §1, §2, §3, §4, §5

O=c1oc2cccnc2c(O)c1-c1cccc(N2CCOCC2)c1C(F)(F)F [Compound I-26]
herbicidal activity against ECHCG [1]: very good herbicidal activity (a very good herbicidal activity is given at values of at least 85)

O=c1oc2cccnc2c(O)c1-c1cc(Cl)cc(N2CCOCC2)c1C(F)(F)F [Compound I-49, 3-[5-chloro-3-morpholino-2-(trifluoromethyl)phenyl]-4-hydroxy-pyrano[3,2-b]pyridin-2-one]
herbicidal activity against SETVI [2]: very good herbicidal activity (a very good herbicidal activity is given at values of at least 85)
herbicidal activity against GALAP [3]: very good herbicidal activity (a very good herbicidal activity is given at values of at least 85)
